This note sets out measurements from patent US10238645B2 (priority 2009, dated 2019).

For series [1], the system named is rabbit left ventricular wedge preparation. Nature of the series: Arterially perfused rabbit left ventricular wedge preparation (QT, QRS, Tp-e, arrhythmogenesis). As to the method: New Zealand White rabbits, either sex weighing 2.3-2.8 kg were anticoagulated with heparin and anesthetized with ketamine/xylazine (40-50 mg/0.5-1.0 mg, per kg, i.v.). The chest was opened via a left thoracotomy, and the heart was excised and placed in a cardioplegic solution consisting of cold (4° C.) normal Tyrode's solution. Transmural wedges with dimensions of approximately 1.5 cm wide and 2-3 cm long were dissected from the left ventricle as described before (Liu et al, Heart Rhythm 2006; 3:948-956). The tissue was cannulated via a small branch of the left anterior descending artery and perfused with cardioplegic solution. […] The ventricular wedge was allowed to equilibrate in the tissue bath until electrically stable for one hour. The preparations were stimulated at basic cycle lengths (BCL) of 1000 and 2000 ms using bipolar silver electrodes insulated except at the tips and applied to the endocardial surface.
The QT interval was defined as the time from the onset of the QRS to the point at which the final downslope of the T wave crosses the isoelectric line. Transmembrane action potential from the endocardium (Endo) was recorded for identification of EADs only when QT prolongation >30% via a customer-made amplifier. Transmural dispersion of repolarization (TDR) was defined as the interval between the end and the peak of T wave (Tp-e).
The ratio of Tp-e to QT was calculated. • (6) Arrhythmic phenomena, including spontaneous R-on-T ectopic beats and TdP, were recorded if they occurred. 3.5 To Estimate Relative TdP Risk
The relative TdP risk of each compound was estimated according in which the Tp-e/QT ratio and […] phenomena were emphasized.
Results were presented as mean±SEM. Statistical analysis was performed using the Student's t-test. A p<0.05 is considered as statistically significant when compared the values at control perfusion.

The nature of series [2]: Acute dermal toxicity study under occlusion. The series is classed as in vivo, rabbits.
Series [3] can be described thus: Systemic embryofetal development study, oral. Format: in vivo. The following applies: rats. As to the method: (§1) Note: The animal multiples of human exposure calculations were based on daily dose comparisons in this label.
Systemic embryofetal development studies were conducted in rats and rabbits.

A short description of series [4]: Systemic embryofetal development study, intravenous. The settings on record: rabbits. The series is classed as in vivo.
Excerpt: as §1

The conditions of series [5]: rats, oral. As to the method:
A combined fertility and peri- and post-natal development study was conducted in rats.

Series [6] can be described thus: Oral (gavage) carcinogenicity study, 24 months. The series is classed as in vivo. The following applies: Wistar rats, up to 6 mg/kg 2×/week females (50×MRHD), 4 mg/kg 2×/week males (40×MRHD), 3 mg/kg 7×/week (25×MRHD).
Series [7] can be described thus: 52-week dermal photo-carcinogenicity study. Format: in vivo. The following applies: hairless mice, imiquimod added to the vehicle cream. From the text: The enhancement of ultraviolet carcinogenicity is not necessarily dependent on phototoxic mechanisms. Therefore, patients should minimize or avoid natural or artificial sunlight exposure to the affected areas.
In a 52-week dermal photo-carcinogenicity study, the median time to onset of skin tumor formation was decreased in hairless mice following chronic topical dosing (3×/week; 40 weeks of treatment followed by 12 weeks of observation) with concurrent exposure to UV radiation (5 days per week) with vehicle alone.

A short description of series [8]: Genotoxicity tests (five in vitro, three in vivo). The following applies: five in vitro and three in vivo genotoxicity tests.
Series [9] is described as follows: Multiple oral imiquimod doses (overdosage). The series is classed as in vivo, human. The settings on record: multiple oral doses of >200 mg.
Series [10] in a line: Open label pharmacokinetic study GW01-0804: serum pharmacokinetics. The following applies: for Geometric LS Mean, Reference (trough serum concentration) / Geometric LS Mean, Test (trough serum concentration): Primary steady-state analysis.
Excerpt: Subjects stayed at the study center overnight during the treatment initiation visit (Day 1, first evening application) and the end-of-treatment visit (Day 21, last evening application). […] In addition, serum PK samples were collected in the evening prior to application on Days 7 and 14 to determine trough concentrations for steady-state analysis.
In addition, single blood draws for PK analysis of trough concentrations to determine steady state were obtained on Day 7 and Day 14 (in the evening prior to application). Blood samples could be obtained within ±5 minutes of the target sampling time.
Pharmacokinetic variables will be calculated from the serum concentration data using standard, non-compartmental methods.
Series [11] in a line: Single dose (oral, intraperitoneal, subcutaneous, intravenous) and repeat dose toxicity studies. The following applies: for LD50: in vivo.

Read-outs that look alike come from different tables or passages of the source.

For the compound `COc1cc(N)c(Cl)cc1C(=O)NC1CCN(CCCOc2ccc(F)cc2)CC1OC` (stereo not shown) [cisapride], the “Effect on Tp-e interval” value in [1] is “marked concentration-dependent Tp-e prolongation”. Moreover, the “Equivocal EAD (preparations)” value in [1] (both, New Zealand White, rabbit, 0.5 uM) is 1 of 4.
As to `CC(C)Cn1cnc2c(N)nc3ccccc3c21` [imiquimod, 1-(2-methylpropyl)-1H-imidazo[4,5-c]quinolin-4-amine], the LD50 (usually the dose at which mortality reaches 50%) in series [2] (Rabbit, Dermal) was greater than 5000 mg/kg; in series [11] (monkey, iv, LD50, Monkey, intravenous bolus), greater than 6 mg/kg; in series [11] (monkey, iv, LD50, Monkey, intravenous infusion), roughly 8 mg/kg; in [11] (monkey, po, LD50, Monkey) it was greater than 200 mg/kg; in series [11] (mouse, ip, LD50, Mouse, Intraperitoneal), 879 mg/kg; in [11] (mouse, po, LD50, Mouse), 403 mg/kg. Further, the LD50 is 763 mg/kg in [11] (rat, ip, LD50, Rat, Intraperitoneal); 1660 mg/kg in series [11] (rat, po, LD50, Rat); roughly 20 mg/kg in [11] (rat, sc, LD50, Rat, Subcutaneous). Moreover, the Acute dermal toxicity entry in series [2] (rabbits, under occlusion, 5000 mg/kg) was “did not reveal any toxic effects”. The same compound showed a QT increase in series [1] (150 nM, BCL of 2000 ms, comparable to DMSO vehicle) of 4%. Moreover, the Proarrhythmic events entry in series [1] (any preparation at any concentration) is “did not cause any proarrhythmic events”. The “Effect on QT interval” value in series [1] (concentration range tested) was “does not have a significant effect”. The “Effect on Tp-e interval” value in [1] (concentration range tested) is “no significant effect”. The “Effect on QRS duration” value in [1] (imiquimod 0.5-150 nM, cisapride at 0.5 uM) is “no significant effect”. Moreover, the “Embryofetal toxicity or teratogenicity” value in series [3] (5 mg/kg/day (73×MRHD based on AUC)), in series [4] (1 mg/kg/day (234×MRHD based on AUC)) and in [4] (2 mg/kg/day (2.1×MRHD based on BSA)) was “No treatment related effects” throughout. In series [3] (20 mg/kg/day (375×MRHD based on AUC), in the presence of maternal toxicity), the Fetal effects entry is recorded as “increased resorptions, decreased fetal body weights, delays in skeletal ossification, bent limb bones”. Moreover, in series [5] (3 mg/kg/day (24×MRHD based on AUC)), the Teratogenicity entry is “No treatment related effects”. Besides, the “Finding in F1 fetuses” value in [5] (6 mg/kg/day (50×MRHD), absence of maternal toxicity) is given as “bent limb bones”. In series [6], the “Tumors in oral carcinogenicity study” value is listed as “No treatment related tumors”. Also, in series [7], the “Tumor development with UV radiation” value is on record as “No additional effect on tumor development beyond the vehicle effect”. Besides, in [8], the “Mutagenic or clastogenic potential” value is reported as “no evidence of mutagenic or clastogenic potential”. Also, in [9], the “Most clinically serious adverse event” value is reported as “hypotension”. Moreover, the “Geometric LS Mean, Reference (trough serum concentration)” value in [10] (Day 14 vs. Day 7, N 13) was 0.1543; in series [10] (Day 21 vs. Day 14, N 11), 0.1874; in series [10] (Day 22 vs. Day 21, N 12), 0.1643. Besides, the “Geometric LS Mean, Test (trough serum concentration)” value in [10] (Day 14 vs. Day 7, N 13) is reported as 0.1749; in [10] (Day 21 vs. Day 14, N 11), 0.1571; in [10] (Day 22 vs. Day 21, N 12) it was 0.1839. For the same compound, the concentration at 7 day (trough, evening prior to application) in series [10] (both, human, in vivo, Geometric LS Mean, Reference (trough serum concentration), Secondary steady-state analysis (BLQ replaced with LLOQ/2), Day 14 vs. Day 7, N 17) turned out to be 0.127 ng/mL. The concentration at 14 day (trough, evening prior to application) in series [10] (both, human, in vivo, Geometric LS Mean, Reference (trough serum concentration), Secondary steady-state analysis (BLQ replaced with LLOQ/2), Day 21 vs. Day 14, N 15) was found to be 0.115 ng/mL; in series [10] (both, human, in vivo, Geometric LS Mean, Test (trough serum concentration), Secondary steady-state analysis (BLQ replaced with LLOQ/2), Day 14 vs. Day 7, N 17), 0.126 ng/mL. Moreover, the concentration at 22 day (trough, 24 h after the Day 21 application) in series [10] (both, human, in vivo, Geometric LS Mean, Test (trough serum concentration), Secondary steady-state analysis (BLQ replaced with LLOQ/2), Day 22 vs. Day 21, N 15) is 0.156 ng/mL. The “Signs of CNS toxicity” value in series [11] (lower repeat doses (100 mg/kg or lower)) was “did not occur”. The Single dose toxicity entry in series [11] (oral, intraperitoneal, subcutaneous or intravenous, lethal doses) was “central nervous system (CNS) stimulation and convulsions”.
Regarding `CC(C)Cn1cnc2c(N)nc3ccccc3c21` [Imiquimod (R-837)], the AUC(0-inf) (as a rule, the area under the concentration-time curve extrapolated to infinity) in series [10] (both, human, in vivo) worked out at 5.35 ng·h/mL. Also, the AUC(0-t) – broadly, the area under the concentration-time curve up to a stated or last time point – in series [10] (both, human, in vivo, AUC0-24, Mean, serum, Day 1) worked out at 3.75 ng·h/mL; in series [10] (both, human, in vivo, AUC0-24, Mean, serum, Day 21), 6.79 ng·h/mL; in series [10] (both, human, in vivo, AUC0-t, Mean, serum, Day 1), 3.12 ng·h/mL. For the same compound, the half-life (commonly the time in which the quantity being followed falls by half) was 747 min in [10] (both, human, in vivo, T1/2, Mean, serum, Day 1); 1450 min in [10] (both, human, in vivo, T1/2, Mean, serum, Day 21); 1880 min in series [10] (both, human, in vivo, T1/2 EFF, Mean, serum, Day 21). In addition, the “λz, Mean” value in series [10] (serum, Day 1) was determined as 0.0756 h⁻¹; in [10] (serum, Day 21) it was 0.0370 h⁻¹. The “λz EFF, Mean” value in series [10] (serum, Day 21) was found to be 0.0380 h⁻¹.
